Patent US20140128461A1, “USE OF A FOOD COMPOSITION IN THE TREATMENT AND/OR PREVENTION OF NEUROPATHIC PAIN INDUCED BY AN ANTICANCER AGENT” (priority 2010, published 2014)

Key:
[1] = system: NR2B subunit of the NMDA receptors; assay: Western blot of NR2B expression and phosphorylation in the dorsal horn of the spinal cord; type: in vivo, rat; settings: D3 after oxaliplatin 6 mg/kg ip, polyamine-containing diet, vs control animals
Method: The dorsal corn of the spinal cord (L4-L6) was isolated on an ice block and immediately frozen in liquid nitrogen. The samples were then stored at −80° C. until analysis.
The tissue samples were subjected to cell lysis at 4° C. performed with 300 μL of stop buffer (50 mM Hepes, 150 mM NaCl, 10 mM EDTA, 10 mM Na2P2O7, 10 mM vanadate, 2 mM Na3VO4, 100 mM NaF, 1% Triton, 0.5 mM PMSF, 100 UI/mL Iniprol and 20 μM Leupeptine, pH 7.5). After sonication (1 to 2 minutes at 4° C.), the sample was centrifuged at 14000 rpm at 4° C. and the supernatant collected. This centrifuging step was repeated once. The supernatant contained the cytoplasmic and membrane proteins assayed by colorimetry (BC Assay UP40840A®, Interchim). […] The proteins were then transferred onto a nitrocellulose membrane (Millipore) for 2 hours in a transfer buffer (25 mM Tris, 190 mM glycine, 20% methanol, pH 8.3). The membranes were hybridised with the corresponding antibodies overnight at 4° C. […] The Western-Blots were scanned with an image analyser ChemiDoc™ XRS System, Bio-rad®) and the density of each band was quantified using computer software (Image Lab™ software, Bio-rad®)). […] The results are expressed as a percentage of the control group (non-treated group receiving a diet containing polyamines, PCD CT).

[2] = system: chronic neuropathy induced by oxaliplatin in rat; assay: Thermal Place Preference Test 20° C. vs. 30° C., chronic neuropathy model, preventive diet
Method: The rats were distributed among plastic cages with 4 rats per cage. The cages were placed in an air-conditioned room at 22° C.±2° C., with controlled hygrometry (50%), a day/night 12-hour lighting cycle, and free access to food and water.
Two types of compositions were used: • a composition containing a quantity of polyamines equivalent to that present in a daily food diet (Putrescine: 54 mg/kg, Cadaverine: 37 mg/kg, Spermidine: 27 mg/kg, Spermine: 7 mg/kg), • a composition with low polyamine content comprising less than 1600 picomoles/g polyamines (Putrescine<0.01 mg/kg, Cadaverine<0.01 mg/kg, Spermidine<0.01 mg/kg, Spermine<0.01 mg/kg).
The different types of diets (diet based on a composition comprising a normal content of polyamines or PCD (Polyamine Containing Diet) and a diet based on a composition with low polyamines content called PDD (Polyamine Deficient Diet)) were given as soon as the rats arrived in the animal housing facility i.e. one week before the start of experiments.
The Thermal Place Preference Test (Bioseb®, Chaville, France) is formed of two adjacent metal plates surrounded by a chamber in opaque Plexiglas. The rat is placed in the chamber and is free to move from one plate to the other. The first plate called the <<reference plate>> is held at ambient temperature (25-30° C.) and the second plate called the <<test plate>> is held at a cold temperature. Using an infrared camera connected to a computer, the time that the animal spends on each plate is measured, together with the number of movements between the two plates. Each session lasts 3 minutes. Habituation of the animals consists of placing the rats on the apparatus for 3 minutes several times a day maintaining the two plates at a temperature of 25° C. […] Three pairs of temperatures were chosen for the experiments in relation to the model examined:

[3] = system: chronic neuropathy induced by oxaliplatin in rat; assay: Thermal Place Preference Test 20° C. vs. 30° C., chronic neuropathy model, curative diet (PDD from D15); settings: rats on PCD diet
Method: The Thermal Place Preference Test (Bioseb®, Chaville, France) is formed of two adjacent metal plates surrounded by a chamber in opaque Plexiglas. The rat is placed in the chamber and is free to move from one plate to the other. The first plate called the <<reference plate>> is held at ambient temperature (25-30° C.) and the second plate called the <<test plate>> is held at a cold temperature. Using an infrared camera connected to a computer, the time that the animal spends on each plate is measured, together with the number of movements between the two plates. Each session lasts 3 minutes. Habituation of the animals consists of placing the rats on the apparatus for 3 minutes several times a day maintaining the two plates at a temperature of 25° C.

Q: Which “expression of the NR2B subunit” value [1] does the source give for `O=C1[O][Pt]2([NH][C@@H]3CCCC[C@H]3[NH]2)[O]C1=O` [oxaliplatin] here?
A: No variation

Q: What about the “phosphorylation of the NR2B subunit on tyrosine sites 1472 and 1336 and serine site 1303” value [1] of the same compound?
A: No variation

Q: And the “change in time spent on the test plate (20° C.) vs control rats on PCD diet” value (from here on “change in time spent … on PCD diet”) ([2]; D10, p<0.001)?
A: −42%

Q: What about the “change in time spent … on PCD diet” value ([2]; D15, p<0.001) of the same compound?
A: −32%

Q: And the “change in time spent … on PCD diet” value ([2]; D22, p<0.001)?
A: −24%

Q: And the “change in time spent … on PCD diet” value ([2]; D29, p<0.05)?
A: −20%

Q: What about the “change in time spent on the test plate (20° C.) vs control rats” value ([3]; D4 (maximal), p<0.01) of the same compound?
A: −46%

Q: What about the “change in time spent on the test plate (20° C.) vs control rats” value ([3]; D39, p<0.01) of the same compound?
A: −15%
